Measured values: US20240343704A1, “HALO-SUBSTITUTED AMINO PYRIDINE COMPOUNDS AS INHIBITORS OF THE HAEMATOPOIETIC PROGENITOR KINASE 1 (HPK1)” (priority 2021, published 2024)
Where two headings read alike, the source gives them in different places.

Key:
[1] = target: Lck (h) (Homo sapiens, UniProt P06239); experiment: Lck Human  Kinase Enzymatic Radiometric Assay; format: biochemical
How it was run: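 Substrate 33P-incorporation measured by scintillation counting after spotting on P30 filtermat and phosphoric acid washes. Human Lck reacted 40 min at RT in 50 mM Tris pH 7.5 with 10 mM MgAcetate, [gamma-33P]-ATP, 250 uM Cdc2 peptide, 0.1 mM EGTA and 0.1 mM Na3VO4.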

[2] = target: T1, Recombinant (1-346) HPK1 (h) (Homo sapiens, UniProt Q92918); experiment: HPK1 Human STE Kinase Enzymatic Radiometric Assay; format: biochemical
T1 construct: Recombinant (1-346) HPK1 (h) is incubated with 8 mM MOPS pH 7.0
T1 sequence (Q92918 1-346): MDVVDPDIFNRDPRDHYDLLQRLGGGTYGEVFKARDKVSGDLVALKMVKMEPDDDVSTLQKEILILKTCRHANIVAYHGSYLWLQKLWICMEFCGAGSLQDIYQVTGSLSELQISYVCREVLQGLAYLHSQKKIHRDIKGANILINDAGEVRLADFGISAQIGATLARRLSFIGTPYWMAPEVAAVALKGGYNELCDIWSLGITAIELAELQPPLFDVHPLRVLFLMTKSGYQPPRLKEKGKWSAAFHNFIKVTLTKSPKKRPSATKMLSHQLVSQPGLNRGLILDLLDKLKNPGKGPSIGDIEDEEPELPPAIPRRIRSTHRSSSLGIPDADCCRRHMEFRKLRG
Experimental: A stock solution of 10 mM of test compound is prepared in DMSO. The compound plate was prepared by 3-fold and 9-point serial dilutions. […] The reaction is initiated by The addition of the Mg/ATP mix. After incubation for 40 minutes at RT, the reaction is stopped by the addition of phosphoric acid to a concentration of 0.5%.

Sequence of Lck (h) (P06239 whole entry): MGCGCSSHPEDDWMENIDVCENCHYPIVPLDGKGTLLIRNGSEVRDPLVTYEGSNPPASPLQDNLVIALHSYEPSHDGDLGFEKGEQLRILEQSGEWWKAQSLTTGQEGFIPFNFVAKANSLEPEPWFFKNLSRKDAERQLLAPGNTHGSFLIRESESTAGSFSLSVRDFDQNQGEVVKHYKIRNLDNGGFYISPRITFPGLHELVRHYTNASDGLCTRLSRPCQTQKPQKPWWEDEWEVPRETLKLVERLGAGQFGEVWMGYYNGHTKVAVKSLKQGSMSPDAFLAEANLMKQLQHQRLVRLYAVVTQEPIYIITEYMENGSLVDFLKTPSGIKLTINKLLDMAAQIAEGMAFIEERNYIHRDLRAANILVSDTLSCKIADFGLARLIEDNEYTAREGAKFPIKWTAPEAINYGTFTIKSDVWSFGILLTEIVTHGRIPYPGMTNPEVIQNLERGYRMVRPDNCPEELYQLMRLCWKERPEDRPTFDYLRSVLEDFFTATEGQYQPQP

SMILES	IC50 ([1]; read-out: Lck IC50 nM Range*) [nM]	IC50 ([2]; read-out: HPK1 IC50 nM Range*) [nM]	IC50 [1] [nM]	IC50 [2] [nM]
Nc1nc(F)c(-c2ccc(C3COCCN3C3COC3)cc2)cc1-c1ccc2c(c1)CCNC2=O (stereo not shown) [I-154, 6-(2-amino-6-fluoro-5-(4-(4-(oxetan-3-yl)morpholin-3-yl)phenyl)pyridin-3-yl)-3,4-dihydroisoquinolin-1(2H)-one]	> 1000	11 to 100	–	–
Nc1nc(F)c(-c2ccc(C3=CCN(C4COC4)CC3)cc2)cc1-c1ccc2c(c1)CCNC2=O [I-155, 6-(2-amino-6-fluoro-5-(4-(1-(oxetan-3-yl)-1,2,3,6-tetrahydropyridin-4-yl)phenyl)pyridin-3-yl)-3,4-dihydroisoquinolin-1(2H)-one]	> 1000	0.1 to 10	–	–
Nc1nc(F)c(-c2ccc([C@@]34C[C@@H]3CN(C3COC3)C4)cc2)cc1-c1ccc2c(c1)CCNC2=O [I-156, 6-(2-amino-6-fluoro-5-(4-((1R,5S)-3-(oxetan-3-yl)-3-azabicyclo[3.1.0]hexan-1-yl)phenyl)pyridin-3-yl)-3,4-dihydroisoquinolin-1(2H)-one]	> 1000	0.1 to 10	–	–
CN(C)C1CCN(c2ccc(-c3cc(-c4ccc5c(c4)CCNC5=O)c(N)nc3F)cc2)C1 (stereo not shown) [I-157, 6-(2-amino-5-(4-(3-(dimethylamino)pyrrolidin-1-yl)phenyl)-6-fluoropyridin-3-yl)-3,4-dihydroisoquinolin-1(2H)-one]	> 1000	0.1 to 10	–	–
CCN(C)C1CCN(c2ccc(-c3cc(-c4ccc5c(c4)CCNC5=O)c(N)nc3F)cc2)C1 (stereo not shown) [I-158, 6-(2-amino-5-(4-(3-(ethyl(methyl)amino)pyrrolidin-1-yl)phenyl)-6-fluoropyridin-3-yl)-3,4-dihydroisoquinolin-1(2H)-one]	101 to 1000	0.1 to 10	–	–
CN(CC(F)(F)F)C1CCN(c2ccc(-c3cc(-c4ccc5c(c4)CCNC5=O)c(N)nc3F)cc2)C1 (stereo not shown) [I-159, 6-(2-amino-6-fluoro-5-(4-(3-(methyl(2,2,2-trifluoroethyl)amino)pyrrolidin-1-yl)phenyl)pyridin-3-yl)-3,4-dihydroisoquinolin-1(2H)-one]	> 1000	0.1 to 10	–	–
COCCN(C)[C@@H]1CCN(c2ccc(-c3cc(-c4ccc5c(c4)CCNC5=O)c(N)nc3F)cc2)C1 [I-160, (R)-6-(2-amino-6-fluoro-5-(4-(3-((2-methoxyethyl)(methyl)amino)pyrrolidin-1-yl)phenyl)pyridin-3-yl)-3,4-dihydroisoquinolin-1(2H)-one]	> 1000	0.1 to 10	–	–
CN(CC1CC1)[C@@H]1CCN(c2ccc(-c3cc(-c4ccc5c(c4)CCNC5=O)c(N)nc3F)cc2)C1 [I-161, (R)-6-(2-amino-5-(4-(3-((cyclopropylmethyl)(methyl)amino)pyrrolidin-1-yl)phenyl)-6-fluoropyridin-3-yl)-3,4-dihydroisoquinolin-1(2H)-one]	101 to 1000	0.1 to 10	–	–
CC(C)CN(C)C1CCN(c2ccc(-c3cc(-c4ccc5c(c4)CCNC5=O)c(N)nc3F)cc2)C1 (stereo not shown) [I-162, 6-(2-amino-6-fluoro-5-(4-(3-(isobutyl(methyl)amino)pyrrolidin-1-yl)phenyl)pyridin-3-yl)-3,4-dihydroisoquinolin-1(2H)-one]	> 1000	0.1 to 10	–	–
Nc1nc(F)c(-c2ccc(N3CCC(F)CC3)cc2)cc1-c1ccc2c(c1)CCNC2=O [I-163, 6-(2-amino-6-fluoro-5-(4-(4-fluoropiperidin-1-yl)phenyl)pyridin-3-yl)-3,4-dihydroisoquinolin-1(2H)-one]	> 1000	0.1 to 10	–	–
CC(C)N1CCC(C)(c2ccc(-c3cc(-c4ccc5c(c4)CCNC5=O)c(N)nc3F)cc2)C1 (stereo not shown) [I-164, 6-(2-amino-6-fluoro-5-(4-(1-isopropyl-3-methylpyrrolidin-3-yl)phenyl)pyridin-3-yl)-3,4-dihydroisoquinolin-1(2H)-one]	> 1000	0.1 to 10	–	–
COCCN1C[C@@H]2C[C@]2(c2ccc(-c3cc(-c4ccc5c(c4)CCNC5=O)c(N)nc3F)cc2)C1 [I-165, 6-(2-amino-6-fluoro-5-(4-((1S,5R)-3-(2-methoxyethyl)-3-azabicyclo[3.1.0]hexan-1-yl)phenyl)pyridin-3-yl)-3,4-dihydroisoquinolin-1(2H)-one]	> 1000	0.1 to 10	–	–
COCCN1CCC(c2ccc(-c3cc(-c4ccc5c(c4)CCNC5=O)c(N)nc3Cl)cc2)CC1 [I-166, 6-(2-amino-6-chloro-5-(4-(1-(2-methoxyethyl)piperidin-4-yl)phenyl)pyridin-3-yl)-3,4-dihydroisoquinolin-1(2H)-one]	> 1000	11 to 100	–	–
COCCN1CCC(O)(c2ccc(-c3cc(-c4ccc5c(c4)CCNC5=O)c(N)nc3F)cc2)CC1 [I-167, 6-(2-amino-6-fluoro-5-(4-(4-hydroxy-1-(2-methoxyethyl)piperidin-4-yl)phenyl)pyridin-3-yl)-3,4-dihydroisoquinolin-1(2H)-one]	> 1000	0.1 to 10	–	–
Nc1nc(Cl)c(-c2ccc(N3CCN(CC(F)F)CC3)cc2)cc1-c1ccc2c(c1)CCNC2=O [I-168, 6-(2-amino-6-chloro-5-(4-(4-(2,2-difluoroethyl)piperazin-1-yl)phenyl)pyridin-3-yl)-3,4-dihydroisoquinolin-1(2H)-one]	> 1000	11 to 100	–	–
CC(C)N1CCN(c2ccc(-c3cc(-c4ccc5c(c4)CCNC5=O)c(N)nc3Cl)cc2)CC1 [I-169, 6-(2-amino-6-chloro-5-(4-(4-isopropylpiperazin-1-yl)phenyl)pyridin-3-yl)-3,4-dihydroisoquinolin-1(2H)-one]	> 1000	11 to 100	–	–
CC(C)N1CCN(c2ccc(-c3cc(-c4cc5c(cc4F)C(=O)NCC5)c(N)nc3F)nc2)CC1 [I-170, 6-(6′-amino-2′-fluoro-5-(4-isopropylpiperazin-1-yl)-[2,3′-bipyridin]-5′-yl)-7-fluoro-3,4-dihydroisoquinolin-1(2H)-one]	> 1000	0.1 to 10	–	–
CC(C)N1CC2C(F)(F)C2(c2ccc(-c3cc(-c4ccc5c(c4)CCNC5=O)c(N)nc3F)cc2)C1 (stereo not shown) [I-171, 6-(2-amino-5-(4-(6,6-difluoro-3-isopropyl-3-azabicyclo[3.1.0]hexan-1-yl)phenyl)-6-fluoropyridin-3-yl)-3,4-dihydroisoquinolin-1(2H)-one]	> 1000	0.1 to 10	–	–
Nc1nc(F)c(-c2ccc(N3CCNCC3)cc2)cc1-c1cc2c(cc1F)C(=O)NCC2 [I-172, 6-(2-amino-6-fluoro-5-(4-(piperazin-1-yl)phenyl)pyridin-3-yl)-7-fluoro-3,4-dihydroisoquinolin-1(2H)-one 2,2,2-trifluoroacetate]	> 1000	0.1 to 10	–	–
CC(C)(C)OC(=O)N1CCC2(CC1)OCc1cc(-c3cc(-c4ccc5c(c4)CCNC5=O)c(N)nc3F)ccc1O2 [I-173, tert-butyl 6-(6-amino-2-fluoro-5-(1-oxo-1,2,3,4-tetrahydroisoquinolin-6-yl)pyridin-3-yl)-4H-spiro[benzo[d][1,3]dioxine-2,4′-piperidine]-1′-carboxylate]	–	–	> 1000	11 to 100
CC(C)(C)OC(=O)N1CCC2(CC1)CC(=O)c1cc(-c3cc(-c4ccc5c(c4)CCNC5=O)c(N)nc3F)ccc1O2 [I-174, tert-butyl 6-(6-amino-2-fluoro-5-(1-oxo-1,2,3,4-tetrahydroisoquinolin-6-yl)pyridin-3-yl)-4-oxospiro[chromane-2,4′-piperidine]-1′-carboxylate]	> 1000	11 to 100	–	–
CC(C)(C)OC(=O)N1CCC2(CCc3cc(-c4cc(-c5ccc6c(c5)CCNC6=O)c(N)nc4F)ccc3O2)CC1 [I-175, tert-butyl 6-(6-amino-2-fluoro-5-(1-oxo-1,2,3,4-tetrahydroisoquinolin-6-yl)pyridin-3-yl)spiro[chromane-24′-piperidine]-1′-carboxylate]	> 1000	101 to 1000	–	–
CC(C)(C)OC(=O)N1CCC(Oc2ccc(-c3cc(-c4ccc5c(c4)CCNC5=O)c(N)nc3F)cc2C#N)CC1 [I-176, tert-butyl 4-(4-(6-amino-2-fluoro-5-(1-oxo-1,2,3,4-tetrahydroisoquinolin-6-yl)pyridin-3-yl)-2-cyanophenoxy)piperidine-1-carboxylate]	> 1000	11 to 100	–	–
CC(C)(C)OC(=O)N1CCN(c2ccc(-c3cc(-c4ccc5c(c4)CCNC5=O)c(N)nc3F)cc2C(F)(F)F)CC1 [I-177, tert-butyl 4-(4-(6-amino-2-fluoro-5-(1-oxo-1,2,3,4-tetrahydroisoquinolin-6-yl)pyridin-3-yl)-2-(trifluoromethyl)phenyl)piperazine-1-carboxylate]	> 1000	101 to 1000	–	–
C[C@@H]1C[C@@H](Oc2ccc(-c3cc(-c4ccc5c(c4)CCNC5=O)c(N)nc3F)cc2)C[C@H](C)N1 [I-178, 6-(2-amino-5-(4-(((2S,4s,6R)-2,6-dimethylpiperidin-4-yl)oxy)phenyl)-6-fluoropyridin-3-yl)-3,4-dihydroisoquinolin-1(2H)-one]	> 1000	0.1 to 10	–	–
Nc1nc(F)c(-c2ccc(OC3CCNCC3)c(F)c2)cc1-c1ccc2c(c1)CCNC2=O [I-179, 6-(2-amino-6-fluoro-5-(3-fluoro-4-(piperidin-4-yloxy)phenyl)pyridin-3-yl)-3,4-dihydroisoquinolin-1(2H)-one]	> 1000	0.1 to 10	–	–
